Laboratory results published in the NIST ThermoML archive (doi:10.1021/je034102r).
Numbers after ± are expanded uncertainties.

Assay: Molar enthalpy of transition or fusion
Settings: Crystal

With `CCCCn1cc[n+](C)c1.F[P-](F)(F)(F)(F)F` [1-butyl-3-methylimidazolium hexafluorophosphate] the “Molar enthalpy of transition or fusion” value was 4.685 ± 0.01 kcal/mol.
